Legend:
[1] = test system: EGFP reporter (7×TetO array, basal CMV promoter) in HEK293T reporter cell line; experiment: Arrayed recruitment assay, PYL1 fusions individually recruited to reporter via ABI1-dCas9 with ABA; type: cell-based, human; set-up: key to independently validated as transactivating fragment: Fragments marked with * were independently validated; conditions: for independently validated as transactivating fragment: fragment fused to PYL1, arrayed format; for activation of the EGFP reporter when individually tested: PYL1 fusion, ABA 48 hours, flow cytometry
From the text: Treatment of cells with abscisic acid (ABA) induces an interaction between ABI1 and PYL1, thereby recruiting the potential transcriptional activator to a specific genomic locus defined by the guide RNA (gRNA). As a reporter, a HEK293T cell line that contains a stably integrated construct with a 7×TetO array and a basal CMV promoter driving the expression of EGFP was used (Gao et al., 2016). A monoclonal cell line that expresses ABI1-dCas9 and a single gRNA targeting TetO was generated by lentiviral infection.
Arrayed recruitment assays. Reporter cells stably co-expressing ABI-dCas9 and TetO gRNA were seeded either on 48-well or 96-well plates (Sarstedt) to reach 50-70% confluency on the day of transfection. 150 ng of each construct to be tested was transfected with polyethylenimine (PEI) at a ratio of 0.6 μl reagent. The day after transfection, recruitment was induced by treatment with ABA (100 μM). […] Inhibitors were dissolved in DMSO to a stock concentration of 10 mM. The final concentrations used were 100 nM for flavopiridol, 300 nM for JQ1, 1 μM for A-485, 2.5 μM for CX-4945 and 3 μM for AZ191. All inhibitors were a kind gift from the Structural Genomics Consortium (SGC). 48 hours after induction, cells were dissociated and resuspended in flow buffer using a liquid handing robot (TECAN) and analyzed by LSR Fortessa (BD). Cells were gated on high EBFP2 and RFP as a measure of gRNA and transfection control, respectively. Flow cytometry data was analyzed using FlowJo (v10).

[2] = test system: EGFP reporter (7×TetO array, basal CMV promoter) in HEK293T reporter cell line; experiment: TAD-seq pooled activation screen of 60-aa fragments fused to PYL1; type: cell-based, human; conditions: for Hit high GFP: high GFP population (top 1%); for logFC high GFP / logFC medium GFP: log 2 fold change of counts, 100 μM ABA 48 hours; for logFC high GFP: sorted high GFP cells (top 1%) vs unsorted cells; for logFC medium GFP: sorted medium GFP cells (top 2-5%) vs unsorted cells; for Hit medium GFP: medium GFP population (top 2-5%)
From the text: A fragment library of 75 activators identified in our screen was generated, using 60 amino-acid tiles every 20 aa such that every amino acid was represented by three different fragments (FIG. 3A). The pooled fragment library was fused to PYL1 and recruited to the same GFP reporter used in the original ORFeome screen (FIG. 3A). […] The GFP positive population was sorted into two independent replicates, and fragments in each population were quantified by sequencing. However, in contrast to the ORFeome screen, both high GFP cells (top 1%) and medium GFP cells (top 2-5%) were sorted to potentially identify transactivators of different strength.
Activation domain tiling library generation. A tiling library was generated from 75 proteins identified as activators in the ORFeome screen. Oligonucleotides containing a 5′ adapter […] (SEQ ID NO: 23) and a 3′ adapter […] (SEQ ID NO: 24) to generate a 5′ adapter ([…]) (SEQ ID NO: 11) and a 3′ adapter ([…]) (SEQ ID NO: 12) were synthesized as pooled libraries (Twist Biosciences). 6×50 μl PCR reactions were set up using NEBNext Ultra II Q5 master mix (New England Biolabs) with 5 nM oligos as template. PCR conditions were optimized to find the lowest cycle with a clean visible product at the expected 300 bp length. The thermocycling condition was an initial 30 s at 98° C., then 2 cycles of 98° C. for 10 s, 63° C. for 20 s, and 72° C. for 15 s, followed by 10 more cycles of 98° C. for 10 s and 72° C. for 30 s with a final extension at 72° C. for 5 min. Primers were designed to have Gateway compatible flanking sequences. The resulting libraries were gel extracted by QIAgen gel extraction kit after loading on a 2% TAE gel for 2 hrs at 60V and subsequently cloned into pDONR221 using 20 separate BP reactions in total of 5 μl reactions. The entry plasmid pool was transformed after an overnight reaction into DHSalpha competent E. coli and incubated overnight on LB agar plates containing kanamycin ([…]). Colonies were collected and plasmid DNA purified. 20 LR reactions were then set up as described in the previous section. Each reaction was transformed into NEB 10-beta chemically competent E. coli and grown on LB agar plates containing carbenicillin ([…]) overnight at 30° C. Colonies were counted to ensure >200-fold coverage at each step of cloning, pooled and maxiprepped.
Pooled activation screens. ORFeome and transactivation tiling libraries tagged at the C-terminus with PYL1 were packaged into lentiviral particles. A clonal EGFP reporter cell line stably co-expressing ABI-dCas9 and a gRNA targeting the promoter were transduced at low multiplicity of infection (MOI) with approximately 30% cell survival after puromycin (1 μg/mL) selection. Untransduced cells under the same condition were fully eliminated. Sufficient cells were transduced to maintain >500 fold coverage of the libraries. Recruitment was induced by treating cells with 100 μM abscisic acid (ABA, Sigma) for 48 hours. In parallel, a control batch of cells were treated with equal total volume of DMSO. Cells were then washed in PBS, treated with dissociation buffer (1 mM EDTA, 10 mM KCl, 150 mM NaCl, 5 mM sodium bicarbonate, 0.1% glucose) and resuspended in flow buffer (5 mM EDTA, 25 mM HEPES pH 7, 1% BSA, PBS). High GFP population for each library, top 1% for ORFeome and two bins of top 1% and the next 4% for the TAD screen, were sorted and their genomic DNA directly extracted using QIAmp DNA Blood Mini Kit (QIAGEN).
TAD sequencing. Performed nested PCR on the purified genomic DNA using primers targeting T7 promoter and PYL1 of the backbone vector in the first step creating a ˜470 bp product. Products of the first reaction were then pooled and amplified for an additional 10 steps using primers targeting outside the Gateway sites creating a ˜300 bp product. Libraries were quantified on Qubit dsDNA Broad Range kit and paired-end sequenced on an Illumina MIseq with a custom PAGE-purified R1 sequencing primer. […]

Substance | independently validated as transactivating fragment [1] | Hit high GFP [2] | logFC high GFP [2] | logFC medium GFP [2] | Hit medium GFP [2] | activation of the EGFP reporter when individually tested [1] | enrichment compared to the unsorted fragment library ([2]; high GFP and medium GFP populations)
C3orf62-12: 60-aa TAD-seq fragment of C3orf62 (QDSPFKEEAWALLMDKSPQKATDADPGSLKQAFDDHNIVETVLDLEEDYNVMTSFKYQIE; listed as Homo sapiens) [Fragment C3orf62-12] | 12* | hit | 6.493 | −0.6067 | – | – | –
KLF7-1: 60-aa TAD-seq fragment of KLF7 (MDVLASYSIFQELQLVHDTGYFSALPSLEETWQQTCLELERYLQTEPRRISETFGEDLDC; listed as Homo sapiens) | KLF7-1* | hit | 5.998 | 1.29 | hit | – | –
p300: known transcriptional activator p300 fused to PYL1 [reference compound] | – | – | – | – | – | robust induction of GFP | –
ATXN7L3-1: 60-aa TAD-seq fragment of ATXN7L3 (MKMEEMSLSGLDNSKLEAIAQEIYADLVEDSCLGFCFEVHRAVKCGYFFLDDTDPDSMKD; listed as Homo sapiens) | 1* | hit | 1.638 | 1.684 | hit | – | –
YAF2-7: 60-aa TAD-seq fragment of YAF2 (SHKKTRPRLKNVDRSSAQHLEVTVGDLTVIITDFKEKTKSPPASSAASADQHSQSGSSSD; listed as Homo sapiens) | YAF2-7* | hit | 4.987 | 1.828 | hit | – | –
HOXB2: HOX family transcription factor tested as PYL1 fusion | – | – | – | – | – | characterized as activators | –
VP64: synthetic transactivator, four tandem copies of the viral VP16 transactivation motif (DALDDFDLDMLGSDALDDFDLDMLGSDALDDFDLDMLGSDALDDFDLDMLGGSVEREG; listed as Homo sapiens) [reference compound] | – | hit | 5.476 | 2.374 | – | robust induction of GFP | enriched in the high GFP population but depleted in the medium GFP population
YAF2: YAF2_RYBP domain of YAF2; same SEQ ID NO as YAF2-7 (SHKKTRPRLKNVDRSSAQHLEVTVGDLTVIITDFKEKTKSPPASSAASADQHSQSGSSSD; listed as Homo sapiens) | – | – | – | – | – | robustly activated the reporter | –
ATF6-2: 60-aa TAD-seq fragment of ATF6 (HRLDEDWDSALFAELGYFTDTDELQLEAANETYENNFDNLDFDLDLVPWESDIWDINNQI; listed as Homo sapiens) | ATF6-2* | hit | 4.688 | 1.477 | hit | – | –
CBX2: CBX-C domain of CBX2 (SASPPSTGQNPSVSVQTSQDWKPTRSLIEHVFVTDVTANLITVTVKESPTSVGFFNLRHY; listed as Homo sapiens) | – | – | – | – | – | the most potent activator | –
CBX8: CBX-C domain of CBX8 (RPSLIARIPVARILGDPEEESWSPSLTNLEKVVVTDVTSNFLTVTIKESNTDQGFFKEKR; listed as Homo sapiens) | – | – | – | – | – | activated the reporter weakly | –
ATXN7L3-2: 60-aa TAD-seq fragment of ATXN7L3 (QEIYADLVEDSCLGFCFEVHRAVKCGYFFLDDTDPDSMKDFEIVDQPGLDIFGQVFNQWK; listed as Homo sapiens) | – | – | 0.7654 | 0.8911 | hit | – | –
FAM90A1-19: 60-aa TAD-seq fragment of FAM90A1 (RQPPHSRPCLPTAQACTMSHHPAASHDGAQPLRVLFRRLENGRWSSSLLTAPSFHSPEKP; listed as Homo sapiens) | – | hit | 2.051 | 1.557 | hit | – | –
NPAS4-39: 60-aa TAD-seq fragment of NPAS4 (CNNLSPEDHSFLEDLATYETAFETGVSAFPYDGFTDELHQLQSQVQDSFHEDGSGGEPTF; listed as Homo sapiens) | – | – | 0.798 | 0.7684 | hit | – | –
NPAS4-36: 60-aa TAD-seq fragment of NPAS4 (DNMFLEETPVEDIFMDLSTPDPSEEWGSGDPEAEGPGGAPSPCNNLSPEDHSFLEDLATY; listed as Homo sapiens) | – | – | 0.671 | 1.209 | hit | – | –
HSF1-24: 60-aa TAD-seq fragment of HSF1 (SGKQLVHYTAQPLFLLDPGSVDTGSNDLPVLFELGEGSYFSEGDGFAEDPTISLLTGSEP; listed as Homo sapiens) | – | – | 0.6763 | 0.8092 | hit | – | –
FAM22F-23: 60-aa TAD-seq fragment of FAM22F (LSYIDKLCSQEDFVTKVEAVIHPRFLEELLSPDPQMDFLALSQELEQEEGLTLAQLVEKR; listed as Homo sapiens) | – | hit | 5.822 | 0.2737 | – | – | –
MYOD1-2: 60-aa TAD-seq fragment of MYOD1 (CSFATTDDFYDDPCFDSPDLRFFEDLDPRLMHVGALLKPEEHSHFPAAVHPAPGAREDEH; listed as Homo sapiens) | – | – | 0.7025 | 0.8486 | hit | – | –
FAM22F-22: 60-aa TAD-seq fragment of FAM22F (EKGKVEQPQEEDGITSDPGLLSYIDKLCSQEDFVTKVEAVIHPRFLEELLSPDPQMDFLA; listed as Homo sapiens) | – | hit | 4.76 | 2.325 | hit | – | –
